# According to patent US8242275B2, “Bicyclic pyrazole compounds as antibacterial agents” (Janssen Pharmaceutica NV, priority 2005, dated 2012):
# Where a name gives a salt, the structure may show the parent alone. Read-outs that look alike come from different tables or passages of the source.
# Columns and labels:
# Assay type in all cases: cell-based
# CipR MRSA OC4222 = experiment: Resistant strains assay (broth microdilution MIC); conditions: Staphylococcus aureus, read-out: MIC, Column G
# Description: Testing protocols followed NCCLS methodology for broth microdilution assays.
# S. pneumoniae ATCC49619 = experiment: In vitro antibacterial activity (MIC assay), broth microdilution
# Summary of the method: (§1)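 Bacteria at roughly 5×10^5 CFU/mL final were grown 16–24 h at 35° C in wells holding 2-fold serial dilutions (11 points) of compound prepared in 100% DMSO, following NCCLS M7-A5. MIC, in μg/mL, is the concentration that stops visible growth relative to untreated wells.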
# S. aureus ATCC13709 = experiment: as above
# Summary of the method: as §1
# E. coli ATCC25922 = experiment: as above; conditions: Escherichia coli
# Summary of the method: as §1
# [1] = Streptococcus pneumoniae, ATCC49619; read-out: S. pneumoniae ATCC49619 MIC
# [2] = Staphylococcus aureus, ATCC13709; read-out: S. aureus ATCC13709 MIC
# [3] = obtained with E. coli ATCC25922, read-out: E. coli MIC, data marked (*)
SMILES,MIC (CipR MRSA OC4222; CipR MRSA OC4222) [µg/mL],MIC (S. pneumoniae ATCC49619; [1]) [µg/mL],MIC (S. aureus ATCC13709; [2]) [µg/mL],MIC (E. coli ATCC25922; [3]) [µg/mL],MIC (CipR MRSA OC4222; MRSA) [µg/mL],"MIC (S. pneumoniae ATCC49619; Streptococcus pneumoniae, ATCC49619, read-out: S. pneumoniae ATCC49619 MIC) [µg/mL]","MIC (S. aureus ATCC13709; Staphylococcus aureus, ATCC13709, read-out: S. aureus ATCC13709 MIC) [µg/mL]","MIC (E. coli ATCC25922; ATCC25922, read-out: E. coli MIC, data marked (*)) [µg/mL]"
"COc1ccc2nccc(-n3cc4c(n3)CCC(NC(=O)c3cc5c(cc3C)SCC(=O)N5)C4)c2n1 (stereo not drawn) [Example 133, 7-Methyl-3-oxo-3,4-dihydro-2H-benzo[1,4]thiazine-6-carboxylic acid [2-(6-methoxy-[1,5]naphthyridin-4-yl)-4,5,6,7-tetrahydro-2H-indazol-5-yl]-amide]",0.25,> 16,0.25,> 16,,,,
"COc1ccc2nccc(-n3cc4c(n3)CCC(NCc3cc5c(cc3F)SCCN5)C4)c2n1 (stereo not drawn) [Example 107, (7-Fluoro-3,4-dihydro-2H-benzo[1,4]thiazin-6-ylmethyl)-[2-(6-methoxy-[1,5]naphthyridin-4-yl)-4,5,6,7-tetrahydro-2H-indazol-5-yl]-amine]",0.5,2,0.25,8,,,,
"COc1ccc2nccc(-n3cc4c(n3)CCC(NC(=O)c3cc5c(cc3C(=O)O)SCC(=O)N5)C4)c2c1 (stereo not drawn) [Example 136, 6-[2-(6-Methoxy-quinolin-4-yl)-4,5,6,7-tetrahydro-2H-indazol-5-ylcarbamoyl]-3-oxo-3,4-dihydro-2H-benzo[1,4]thiazine-7-carboxylic acid, potassium salt]",,,,,2,> 16,1,> 16
"CCOC(=O)c1cc2c(cc1C(=O)NC1CCc3nn(-c4ccnc5ccc(OC)nc45)cc3C1)NC(=O)CS2 (stereo not drawn) [Example 137, 6-[2-(6-Methoxy-[1,5]naphthyridin-4-yl)-4,5,6,7-tetrahydro-2H-indazol-5-ylcarbamoyl]-3-oxo-3,4-dihydro-2H-benzo[1,4]thiazine-7-carboxylic acid ethyl ester]",0.5,> 16,0.5,> 16,,,,
"COc1ccc2nccc(-n3cc4c(n3)CCC(NC(=O)c3cc5c(cc3C(=O)O)SCC(=O)N5)C4)c2n1 (stereo not drawn) [Example 138, 6-[2-(6-Methoxy-[1,5]naphthyridin-4-yl)-4,5,6,7-tetrahydro-2H-indazol-5-ylcarbamoyl]-3-oxo-3,4-dihydro-2H-benzo[1,4]thiazine-7-carboxylic acid]",0.5,16,0.5,> 16,,,,
"COc1ccc2nccc(-n3cc4c(n3)CCC(NC(=O)c3ccc5c(c3)NC(=O)C(C)(C)S5)C4)c2c1 (stereo not drawn) [Example 129, 2,2-Dimethyl-3-oxo-3,4-dihydro-2H-benzo[1,4]thiazine-6-carboxylic acid [2-(6-methoxy-quinolin-4-yl)-4,5,6,7-tetrahydro-2H-indazol-5-yl]-amide]",1,4,1,> 16,,,,
"COc1ccc2nccc(-n3cc4c(n3)CCC(NC(=O)c3cc5c(cc3OC)SCC(=O)N5)C4)c2n1 (stereo not drawn) [Example 130, 7-Methoxy-3-oxo-3,4-dihydro-2H-benzo[1,4]thiazine-6-carboxylic acid [2-(6-methoxy-[1,5]naphthyridin-4-yl)-4,5,6,7-tetrahydro-2H-indazol-5-yl]-amide]",2,16,2,> 16,,,,
"COc1ccc2nccc(-n3ncc4c3CCC(NC(=O)c3cc5c(cc3C)SCC(=O)N5)C4)c2c1 (stereo not drawn) [Example 132, 7-Methyl-3-oxo-3,4-dihydro-2H-benzo[1,4]thiazine-6-carboxylic acid [1-(6-methoxy-quinolin-4-yl)-4,5,6,7-tetrahydro-1H-indazol-5-yl]-amide]",2,> 16,2,> 16,,,,
"CCOC(=O)c1cc2c(cc1C(=O)NC1CCc3nn(-c4ccnc5ccc(OC)cc45)cc3C1)NC(=O)CS2 (stereo not drawn) [Example 135, 6-[2-(6-Methoxy-quinolin-4-yl)-4,5,6,7-tetrahydro-2H-indazol-5-ylcarbamoyl]-3-oxo-3,4-dihydro-2H-benzo[1,4]thiazine-7-carboxylic acid ethyl ester]",2,> 16,2,> 16,,,,
